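Results reflect a 48-hour exposure of cells in 96-well plates to compound at five concentrations. The concentration for 50% growth inhibition is given as GI50. Definition used: TGI = concentration required for complete inhibition of growth.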
Tests used:
Experiment in all cases: NCI anticancer screen, dose series, 48 h
786-0 renal = system: 786-0 renal
A498 renal = system: A498 renal
A549 NSCLC = system: A549 NSCLC
ACHN renal = system: ACHN renal
BT-549 breast = system: BT-549 breast
CAKI-1 renal = system: CAKI-1 renal
CCRF-CEM leukemia = system: CCRF-CEM leukemia
COLO 205 colon = system: COLO 205 colon
DU-145 prostate = system: DU-145 prostate
EKVX NSCLC = system: EKVX NSCLC
HCC-2998 colon = system: HCC-2998 colon
HCT-116 colon = system: HCT-116 colon
HCT-15 colon = system: HCT-15 colon
HL-60(TB) leukemia = system: HL-60(TB) leukemia
HOP-62 NSCLC = system: HOP-62 NSCLC
HOP-92 NSCLC = system: HOP-92 NSCLC
HS 578T breast = system: HS 578T breast
HT29 colon = system: HT29 colon
IGROV1 ovarian = system: IGROV1 ovarian
K-562 leukemia = system: K-562 leukemia
KM12 colon = system: KM12 colon
LOX IMVI melanoma = system: LOX IMVI melanoma
M14 melanoma = system: M14 melanoma
MALME-3M melanoma = system: MALME-3M melanoma
MCF7 breast = system: MCF7 breast
MDA-MB-231 breast = system: MDA-MB-231 breast
MDA-MB-435 = system: MDA-MB-435
MOLT-4 leukemia = system: MOLT-4 leukemia
NCI-H226 lung = system: NCI-H226 lung
NCI-H23 lung = system: NCI-H23 lung
NCI-H460 lung = system: NCI-H460 lung
NCI-H522 lung = system: NCI-H522 lung
NCI/ADR-RES ovarian = system: NCI/ADR-RES ovarian
OVCAR-3 ovarian = system: OVCAR-3 ovarian
OVCAR-4 ovarian = system: OVCAR-4 ovarian
OVCAR-5 ovarian = system: OVCAR-5 ovarian
OVCAR-8 ovarian = system: OVCAR-8 ovarian
PC-3 prostate = system: PC-3 prostate
RPMI-8226 leukemia = system: RPMI-8226 leukemia
RXF 393 renal = system: RXF 393 renal
SF-268 CNS = system: SF-268 CNS
SF-295 CNS = system: SF-295 CNS
SF-539 CNS = system: SF-539 CNS
SK-MEL-2 melanoma = system: SK-MEL-2 melanoma
SK-MEL-28 melanoma = system: SK-MEL-28 melanoma
SK-MEL-5 melanoma = system: SK-MEL-5 melanoma
SK-OV-3 ovarian = system: SK-OV-3 ovarian
SN12C renal = system: SN12C renal
SNB-19 CNS = system: SNB-19 CNS
SNB-75 CNS = system: SNB-75 CNS
SR leukemia = system: SR leukemia
SW-620 colon = system: SW-620 colon
T-47D breast = system: T-47D breast
TK-10 renal = system: TK-10 renal
U251 CNS = system: U251 CNS
UACC-257 melanoma = system: UACC-257 melanoma
UACC-62 melanoma = system: UACC-62 melanoma
UO-31 renal = system: UO-31 renal

Compound: CC(C)(C)Nc1nc2c(OCCc3ccccc3)cccn2c1-c1ccc(Cl)cc1
- GI50 (786-0 renal): 19.4 µM
- TGI (786-0 renal): 45.2 µM
- GI50 (A498 renal): 15.2 µM
- TGI (A498 renal): 62.1 µM
- GI50 (A549 NSCLC): 24 µM
- TGI (A549 NSCLC): > 100 µM
- GI50 (ACHN renal): 27.3 µM
- TGI (ACHN renal): > 100 µM
- GI50 (BT-549 breast): 19.6 µM
- TGI (BT-549 breast): 49.5 µM
- GI50 (CAKI-1 renal): 25.1 µM
- TGI (CAKI-1 renal): > 100 µM
- GI50 (CCRF-CEM leukemia): 29.9 µM
- TGI (CCRF-CEM leukemia): 97.2 µM
- GI50 (COLO 205 colon): 16.4 µM
- TGI (COLO 205 colon): 34.7 µM
- GI50 (DU-145 prostate): 25 µM
- TGI (DU-145 prostate): > 100 µM
- GI50 (EKVX NSCLC): 22.5 µM
- TGI (EKVX NSCLC): 86 µM
- GI50 (HCC-2998 colon): 28.1 µM
- TGI (HCC-2998 colon): > 100 µM
- GI50 (HCT-116 colon): 17.6 µM
- TGI (HCT-116 colon): 43.4 µM
- GI50 (HCT-15 colon): 17.3 µM
- TGI (HCT-15 colon): 43.1 µM
- GI50 (HL-60(TB) leukemia): 25.7 µM
- TGI (HL-60(TB) leukemia): 74.5 µM
- GI50 (HOP-62 NSCLC): 20.2 µM
- TGI (HOP-62 NSCLC): 52.8 µM
- GI50 (HOP-92 NSCLC): 17.4 µM
- TGI (HOP-92 NSCLC): 67.2 µM
- GI50 (HS 578T breast): 20.8 µM
- TGI (HS 578T breast): 77.5 µM
- GI50 (HT29 colon): 19.7 µM
- TGI (HT29 colon): 53.6 µM
- GI50 (IGROV1 ovarian): 25.7 µM
- TGI (IGROV1 ovarian): > 100 µM
- GI50 (K-562 leukemia): 26.4 µM
- TGI (K-562 leukemia): > 100 µM
- GI50 (KM12 colon): 22.2 µM
- TGI (KM12 colon): 69.9 µM
- GI50 (LOX IMVI melanoma): 17.1 µM
- TGI (LOX IMVI melanoma): 33.3 µM
- GI50 (M14 melanoma): 26.3 µM
- TGI (M14 melanoma): 71.2 µM
- GI50 (MALME-3M melanoma): 23.9 µM
- TGI (MALME-3M melanoma): 59 µM
- GI50 (MCF7 breast): 21.1 µM
- TGI (MCF7 breast): 93.5 µM
- GI50 (MDA-MB-231 breast): 16.7 µM
- TGI (MDA-MB-231 breast): 35 µM
- GI50 (MDA-MB-435): 30.3 µM
- TGI (MDA-MB-435): > 100 µM
- GI50 (MOLT-4 leukemia): 18.3 µM
- TGI (MOLT-4 leukemia): 95.5 µM
- GI50 (NCI-H226 lung): 18.1 µM
- TGI (NCI-H226 lung): 60 µM
- GI50 (NCI-H23 lung): 25.3 µM
- TGI (NCI-H23 lung): 83.4 µM
- GI50 (NCI-H460 lung): 18.9 µM
- TGI (NCI-H460 lung): 50.5 µM
- GI50 (NCI-H522 lung): 16.1 µM
- TGI (NCI-H522 lung): 54.3 µM
- GI50 (NCI/ADR-RES ovarian): 21.6 µM
- TGI (NCI/ADR-RES ovarian): 82.4 µM
- GI50 (OVCAR-3 ovarian): 16.4 µM
- TGI (OVCAR-3 ovarian): 64.8 µM
- GI50 (OVCAR-4 ovarian): 26.7 µM
- TGI (OVCAR-4 ovarian): > 100 µM
- GI50 (OVCAR-5 ovarian): 23.7 µM
- TGI (OVCAR-5 ovarian): > 100 µM
- GI50 (OVCAR-8 ovarian): 27.1 µM
- TGI (OVCAR-8 ovarian): > 100 µM
- GI50 (PC-3 prostate): 25.3 µM
- TGI (PC-3 prostate): > 100 µM
- GI50 (RPMI-8226 leukemia): 20.8 µM
- TGI (RPMI-8226 leukemia): 60.4 µM
- GI50 (RXF 393 renal): 13.4 µM
- TGI (RXF 393 renal): 35.6 µM
- GI50 (SF-268 CNS): 27.1 µM
- TGI (SF-268 CNS): > 100 µM
- GI50 (SF-295 CNS): 24.8 µM
- TGI (SF-295 CNS): 61.8 µM
- GI50 (SF-539 CNS): 18.5 µM
- TGI (SF-539 CNS): 37.8 µM
- GI50 (SK-MEL-2 melanoma): 12.8 µM
- TGI (SK-MEL-2 melanoma): 28.8 µM
- GI50 (SK-MEL-28 melanoma): 27.6 µM
- TGI (SK-MEL-28 melanoma): > 100 µM
- GI50 (SK-MEL-5 melanoma): 17 µM
- TGI (SK-MEL-5 melanoma): 32.6 µM
- GI50 (SK-OV-3 ovarian): 24.5 µM
- TGI (SK-OV-3 ovarian): 75.7 µM
- GI50 (SN12C renal): 22.4 µM
- TGI (SN12C renal): > 100 µM
- GI50 (SNB-19 CNS): 32.3 µM
- TGI (SNB-19 CNS): > 100 µM
- GI50 (SNB-75 CNS): 17.6 µM
- TGI (SNB-75 CNS): > 100 µM
- GI50 (SR leukemia): 19.3 µM
- TGI (SR leukemia): > 100 µM
- GI50 (SW-620 colon): 28.1 µM
- TGI (SW-620 colon): > 100 µM
- GI50 (T-47D breast): 17.7 µM
- TGI (T-47D breast): > 100 µM
- GI50 (TK-10 renal): 25.3 µM
- TGI (TK-10 renal): 79.5 µM
- GI50 (U251 CNS): 18.7 µM
- TGI (U251 CNS): 48.7 µM
- GI50 (UACC-257 melanoma): 26.4 µM
- TGI (UACC-257 melanoma): 89.9 µM
- GI50 (UACC-62 melanoma): 16 µM
- TGI (UACC-62 melanoma): 38.3 µM
- GI50 (UO-31 renal): 11.3 µM
- TGI (UO-31 renal): 39.7 µM

From PubChem BioAssay (NCI)
